Experimental data: the NIST ThermoML archive (doi:10.1016/j.fluid.2008.07.006)
Numbers after ± are expanded uncertainties.

What was measured:
[1] = 101.33 kPa, Liquid
[2] = cn = amount concentration of the nth substance listed, in mol/dm3; settings: 101 kPa, Liquid, Direct current cell with electrodes
[3] = xn = mol fraction of the nth substance listed; settings: 101 kPa, Fluid (supercritical or subcritical phases)

CCn1cc[n+](C)c1.COCCOCCOS(=O)(=O)[O-] [1-ethyl-3-methylimidazolium 2-(2-methoxyethoxy) ethylsulfate]
[1]
Settings	mass density [kg/m3]
303.2 K	1233.4 ± 3
308.2 K	1230 ± 2.9
313.2 K	1226.6 ± 2.9
318.2 K	1223.3 ± 2.9
323.2 K	1219.9 ± 2.9

CCn1cc[n+](C)c1.COCCOCCOS(=O)(=O)[O-] [1-ethyl-3-methylimidazolium 2-(2-methoxyethoxy) ethylsulfate] + O
Settings	binary diffusion coefficient, 303.2 K [m2/s]	binary diffusion coefficient, 308.2 K [m2/s]	binary diffusion coefficient, 313.2 K [m2/s]	binary diffusion coefficient, 318.2 K [m2/s]	binary diffusion coefficient, 323.2 K [m2/s]	molar conductivity, 303.2 K [S·m2/mol]	molar conductivity, 308.2 K [S·m2/mol]	molar conductivity, 313.2 K [S·m2/mol]	molar conductivity, 318.2 K [S·m2/mol]	molar conductivity, 323.2 K [S·m2/mol]
[2], c1 = 9e-10	–	–	–	–	–	0.0074 ± 0.0004	0.0081 ± 0.0005	0.009 ± 0.0005	0.0098 ± 0.0006	0.0107 ± 0.0006
[2], c1 = 3.9e-09	–	–	–	–	–	0.0067 ± 0.0004	0.0075 ± 0.0005	0.0082 ± 0.0005	0.0091 ± 0.0005	0.0097 ± 0.0006
[2], c1 = 1.06e-08	–	–	–	–	–	0.0062 ± 0.0004	0.007 ± 0.0004	0.0077 ± 0.0005	0.0084 ± 0.0005	0.0091 ± 0.0005
[2], c1 = 1.82e-08	–	–	–	–	–	0.006 ± 0.0004	0.0067 ± 0.0004	0.0074 ± 0.0004	0.0081 ± 0.0005	0.0088 ± 0.0005
[2], c1 = 2.57e-08	–	–	–	–	–	0.0059 ± 0.0004	0.0065 ± 0.0004	0.0072 ± 0.0004	0.0076 ± 0.0005	0.0083 ± 0.0005
[3], x2 = 0	9.95e-10	1.06e-09	1.27e-09	1.32e-09	1.51e-09	–	–	–	–	–

CCn1cc[n+](C)c1.N#CN=C=[N-] [1-ethyl-3-methylimidazolium dicyanamide]
[1]
Settings	mass density [kg/m3]
303.2 K	1105.8 ± 0.6
308.2 K	1102.6 ± 0.6
313.2 K	1099.4 ± 0.6
318.2 K	1096.2 ± 0.6
323.2 K	1093 ± 0.6

CCn1cc[n+](C)c1.N#CN=C=[N-] [1-ethyl-3-methylimidazolium dicyanamide] + O
Settings	binary diffusion coefficient, 303.2 K [m2/s]	binary diffusion coefficient, 308.2 K [m2/s]	binary diffusion coefficient, 313.2 K [m2/s]	binary diffusion coefficient, 318.2 K [m2/s]	binary diffusion coefficient, 323.2 K [m2/s]	molar conductivity, 303.2 K [S·m2/mol]	molar conductivity, 308.2 K [S·m2/mol]	molar conductivity, 313.2 K [S·m2/mol]	molar conductivity, 318.2 K [S·m2/mol]	molar conductivity, 323.2 K [S·m2/mol]
[2], c1 = 1.2e-09	–	–	–	–	–	0.0095 ± 0.0004	0.0103 ± 0.0004	0.011 ± 0.0004	0.0123 ± 0.0005	0.0133 ± 0.0005
[2], c1 = 6.6e-09	–	–	–	–	–	0.009 ± 0.0004	0.0098 ± 0.0004	0.0108 ± 0.0004	0.0118 ± 0.0005	0.0128 ± 0.0005
[2], c1 = 1.19e-08	–	–	–	–	–	0.0087 ± 0.0004	0.0095 ± 0.0004	0.0105 ± 0.0004	0.0113 ± 0.0005	0.0125 ± 0.0005
[2], c1 = 2.28e-08	–	–	–	–	–	0.0083 ± 0.0003	0.0092 ± 0.0004	0.01 ± 0.0004	0.0109 ± 0.0004	0.0119 ± 0.0005
[2], c1 = 4.15e-08	–	–	–	–	–	0.0079 ± 0.0003	0.0088 ± 0.0004	0.0095 ± 0.0004	0.0103 ± 0.0004	0.0114 ± 0.0005
[3], x1 = 0	1.25e-09	1.41e-09	1.54e-09	1.71e-09	1.85e-09	–	–	–	–	–

CCOS(=O)(=O)[O-].CCn1cc[n+](C)c1 [1-ethyl-3-methylimidazolium ethyl sulfate]
[1]
Settings	mass density [kg/m3]
303.2 K	1232.7 ± 1.7
308.2 K	1229.4 ± 1.7
313.2 K	1226.2 ± 1.6
318.2 K	1222.9 ± 1.6
323.2 K	1219.7 ± 1.6

CCOS(=O)(=O)[O-].CCn1cc[n+](C)c1 [1-ethyl-3-methylimidazolium ethyl sulfate] + O
Settings	binary diffusion coefficient, 303.2 K [m2/s]	binary diffusion coefficient, 308.2 K [m2/s]	binary diffusion coefficient, 313.2 K [m2/s]	binary diffusion coefficient, 318.2 K [m2/s]	binary diffusion coefficient, 323.2 K [m2/s]	molar conductivity, 303.2 K [S·m2/mol]	molar conductivity, 308.2 K [S·m2/mol]	molar conductivity, 313.2 K [S·m2/mol]	molar conductivity, 318.2 K [S·m2/mol]	molar conductivity, 323.2 K [S·m2/mol]
[2], c1 = 1.6e-09	–	–	–	–	–	0.008 ± 0.0003	0.0089 ± 0.0004	0.0097 ± 0.0004	0.0106 ± 0.0004	0.0116 ± 0.0005
[2], c1 = 4.6e-09	–	–	–	–	–	0.0076 ± 0.0003	0.0084 ± 0.0003	0.0092 ± 0.0004	0.0101 ± 0.0004	0.011 ± 0.0004
[2], c1 = 8.6e-09	–	–	–	–	–	0.0074 ± 0.0003	0.0081 ± 0.0003	0.0089 ± 0.0004	0.0097 ± 0.0004	0.0106 ± 0.0004
[2], c1 = 1.72e-08	–	–	–	–	–	0.0071 ± 0.0003	0.0079 ± 0.0003	0.0086 ± 0.0003	0.0095 ± 0.0004	0.0102 ± 0.0004
[2], c1 = 3.58e-08	–	–	–	–	–	0.0065 ± 0.0003	0.0073 ± 0.0003	0.0082 ± 0.0003	0.0091 ± 0.0004	0.0098 ± 0.0004
[3], x1 = 0	1.04e-09	1.19e-09	1.4e-09	1.5e-09	1.64e-09	–	–	–	–	–

CCn1cc[n+](C)c1.F[B-](F)(F)F [1-ethyl-3-methylimidazolium tetrafluoroborate]
[1]
Settings	mass density [kg/m3]
303.2 K	1278.7 ± 6.4
308.2 K	1275 ± 6.4
313.2 K	1271.4 ± 6.3
318.2 K	1267.8 ± 6.3
323.2 K	1264.2 ± 6.2

CCn1cc[n+](C)c1.F[B-](F)(F)F [1-ethyl-3-methylimidazolium tetrafluoroborate] + O
Settings	binary diffusion coefficient, 303.2 K [m2/s]	binary diffusion coefficient, 308.2 K [m2/s]	binary diffusion coefficient, 313.2 K [m2/s]	binary diffusion coefficient, 318.2 K [m2/s]	binary diffusion coefficient, 323.2 K [m2/s]	molar conductivity, 303.2 K [S·m2/mol]	molar conductivity, 308.2 K [S·m2/mol]	molar conductivity, 313.2 K [S·m2/mol]	molar conductivity, 318.2 K [S·m2/mol]	molar conductivity, 323.2 K [S·m2/mol]
[2], c1 = 1e-09	–	–	–	–	–	0.0119 ± 0.0005	0.013 ± 0.0005	0.0139 ± 0.0006	0.0149 ± 0.0006	0.0162 ± 0.0007
[2], c1 = 5.5e-09	–	–	–	–	–	0.0111 ± 0.0004	0.0121 ± 0.0005	0.0131 ± 0.0005	0.0142 ± 0.0006	0.0153 ± 0.0006
[2], c1 = 1.32e-08	–	–	–	–	–	0.0105 ± 0.0004	0.0116 ± 0.0005	0.0125 ± 0.0005	0.0136 ± 0.0005	0.0146 ± 0.0006
[2], c1 = 2.22e-08	–	–	–	–	–	0.0101 ± 0.0004	0.0111 ± 0.0004	0.012 ± 0.0005	0.013 ± 0.0005	0.014 ± 0.0006
[2], c1 = 4.15e-08	–	–	–	–	–	0.009 ± 0.0004	0.0099 ± 0.0004	0.0108 ± 0.0004	0.0117 ± 0.0005	0.0127 ± 0.0005
[3], x1 = 0	1.5e-09	1.57e-09	1.69e-09	1.88e-09	2.01e-09	–	–	–	–	–

CCn1cc[n+](C)c1.O=S(=O)([O-])C(F)(F)F [1-ethyl-3-methylimidazolium trifluoromethanesulfonate]
[1]
Settings	mass density [kg/m3]
303.2 K	1377.3 ± 4.4
308.2 K	1373.3 ± 4.4
313.2 K	1369.3 ± 4.4
318.2 K	1365.3 ± 4.3
323.2 K	1361.2 ± 4.3

CCn1cc[n+](C)c1.O=S(=O)([O-])C(F)(F)F [1-ethyl-3-methylimidazolium trifluoromethanesulfonate] + O
Settings	binary diffusion coefficient, 303.2 K [m2/s]	binary diffusion coefficient, 308.2 K [m2/s]	binary diffusion coefficient, 313.2 K [m2/s]	binary diffusion coefficient, 318.2 K [m2/s]	binary diffusion coefficient, 323.2 K [m2/s]	molar conductivity, 303.2 K [S·m2/mol]	molar conductivity, 308.2 K [S·m2/mol]	molar conductivity, 313.2 K [S·m2/mol]	molar conductivity, 318.2 K [S·m2/mol]	molar conductivity, 323.2 K [S·m2/mol]
[2], c1 = 1.2e-09	–	–	–	–	–	0.0083 ± 0.0003	0.0093 ± 0.0004	0.0101 ± 0.0004	0.011 ± 0.0004	0.012 ± 0.0005
[2], c1 = 3.8e-09	–	–	–	–	–	0.0079 ± 0.0003	0.0088 ± 0.0004	0.0097 ± 0.0004	0.0106 ± 0.0004	0.0114 ± 0.0005
[2], c1 = 8.7e-09	–	–	–	–	–	0.0077 ± 0.0003	0.0085 ± 0.0003	0.0093 ± 0.0004	0.0102 ± 0.0004	0.0111 ± 0.0004
[2], c1 = 1.86e-08	–	–	–	–	–	0.0073 ± 0.0003	0.008 ± 0.0003	0.0088 ± 0.0004	0.0095 ± 0.0004	0.0103 ± 0.0004
[2], c1 = 3.19e-08	–	–	–	–	–	0.0069 ± 0.0003	0.0077 ± 0.0003	0.0084 ± 0.0003	0.0092 ± 0.0004	0.01 ± 0.0004
[3], x1 = 0	1.16e-09	1.27e-09	1.51e-09	1.66e-09	1.8e-09	–	–	–	–	–

F[B-](F)(F)F.[Li+] [lithium fluoroborate] + O
molar conductivity [S·m2/mol], [2]
Settings	303.2 K	308.2 K	313.2 K	318.2 K	323.2 K
c1 = 3e-09	0.0117 ± 0.0005	0.0126 ± 0.0005	0.0134 ± 0.0005	0.0144 ± 0.0006	0.0158 ± 0.0006
c1 = 1.11e-08	0.0111 ± 0.0004	0.0122 ± 0.0005	0.0129 ± 0.0005	0.0139 ± 0.0006	0.0155 ± 0.0006
c1 = 2.73e-08	0.0106 ± 0.0004	0.0119 ± 0.0005	0.0125 ± 0.0005	0.0135 ± 0.0005	0.0152 ± 0.0006
c1 = 4.81e-08	0.0103 ± 0.0004	0.0115 ± 0.0005	0.0121 ± 0.0005	0.0131 ± 0.0005	0.0149 ± 0.0006
c1 = 7.55e-08	0.01 ± 0.0004	0.0112 ± 0.0005	0.0118 ± 0.0005	0.0127 ± 0.0005	0.0145 ± 0.0006
